25 molecules from PubChem BioAssay AID743231 (The Scripps Research Institute Molecular Screening Center, 2013) can be followed below.

pIC50: −log10 of the molar value. Active and inactive are the calls of the source. The limit is not given here; nearly all actives have IC50 up to about 7.9 µM.

Sequence of Trace amine-associated receptor 1 (Homo sapiens) (Q96RJ0 whole entry, looked up): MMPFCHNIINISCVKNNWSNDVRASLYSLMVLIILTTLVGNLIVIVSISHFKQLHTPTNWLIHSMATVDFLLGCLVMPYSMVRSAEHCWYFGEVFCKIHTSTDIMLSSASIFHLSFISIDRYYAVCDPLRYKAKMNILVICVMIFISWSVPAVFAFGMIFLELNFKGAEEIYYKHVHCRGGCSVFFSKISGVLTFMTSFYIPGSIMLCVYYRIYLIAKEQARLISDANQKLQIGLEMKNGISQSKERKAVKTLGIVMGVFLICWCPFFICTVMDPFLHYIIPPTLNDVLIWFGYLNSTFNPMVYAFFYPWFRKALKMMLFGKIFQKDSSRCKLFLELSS

The assay has as its target Trace amine-associated receptor 1 (Homo sapiens) (UniProt Q96RJ0). The assay is described as follows: agonist-induced loss of TAAR1 response, titration – cell-based, fluorescence, late stage, counter-screen for TAAR1 agonist project, dose response (AID 743231). The note with it: hTAAR1 cells, desensitization of agonist response. In general terms: A counterscreen serves to expose hits that act by an unwanted route or on another target.
Broadly, the pIC50 is −log10 of the IC50, conventionally taken in molar units. With `OCCNc1nc(Nc2ccc(O)cc2)nc2ccccc12`, the pIC50 is 5.73.
Turning to `Cc1ccc(NC(=O)CCN2CCc3ccccc3C2)cc1`, the negative logarithm of the IC50 (pIC50) is 5.08.
`O=C(CCCCl)N1CCc2[nH]c3ccccc3c2C1`: the pIC50 is 5.96.
As to `OCCNc1nc(Nc2cccc(O)c2)nc2ccccc12`, the pIC50 was 6.61.
Turning to `COc1cc(C(=O)CCN2CCC(c3ccccc3)C2)cc(OC)c1OC` (stereo not given), the pIC50 is 5.82.
On the same count and under the same terms, next, `Cc1cc(N(C)C)nc(Nc2ccccc2)n1`: 6.68.
Turning to `Nc1nc(Nc2cccc(F)c2)nc2ccccc12`, the negative-log IC50 (pIC50) was 5.89.
On to `O=C(CCN1CCC(c2ccccc2)C1)c1ccc2c(c1)OCCO2` (stereo not given), for which the pIC50 is 6.07.
With `CCOC(=O)C(NC(=O)CC)(N1CCc2ccccc2C1)C(F)(F)F` (stereo not given), the pIC50 was 6.21.
As to `O=C(Nc1ccccc1)Nc1ccncc1`, the pIC50 is 5.56.
What is called IC50 is the concentration that inhibits the measured activity by half. Consider `O=C(Nc1cccc2ccccc12)N1CCc2ccccc2C1`, for which the IC50 is > 29900 nM (inactive).
Consider `CCOC(=O)C(NC(C)=O)(N1CCc2ccccc2C1)C(F)(F)F` (stereo not given), for which the pIC50 is 6.19.
As for `c1ccc2c(c1)CCN(c1nc3cc4c(cc3s1)OCO4)C2`, the pIC50 is 5.65.
Turning to `O=C(Nc1ccncc1)Nc1ccc(F)cc1`, the pIC50 was 5.61.
As to `Nc1nc(Nc2ccccc2)nc2ccccc12`, the pIC50 is 6.19.
Consider `c1ccc(CCn2nnnc2C(c2cccs2)N2CCN(Cc3ccc4c(c3)OCO4)CC2)cc1` (stereo not given), for which the pIC50 was 5.87.
On the same count and under the same terms, next, `O=C(CCN1CCC(c2ccccc2)C1)c1cccs1` (stereo not given): 6.08; `c1ccc2c3c([nH]c2c1)CCNC3`: 5.95; `NC(N)=NN=Cc1c(Cl)cccc1Cl`: 6.11.
With `Cc1cc(C)n(C(CC(=O)N2CCc3ccccc3C2)C(=O)O)n1` (stereo not given), the pIC50 was 5.92.
Consider `CC1(C)CCCN(C(=O)c2coc(=O)c(Br)c2)C1`, for which the pIC50 is 5.59.
For the molecule `O=C(C(=O)N1CCc2ccccc2C1)c1cn(CC(=O)N2CCCCC2)c2ccccc12`, the pIC50 is 5.57.
On to `CC(=NCCc1ccccc1)C1CCOC1=O` (stereo not given), for which the pIC50 was 5.55.
Turning to `O=C(Nc1cccnc1)Nc1cccc(F)c1`, the pIC50 is 5.19.
In the case of `O=C(CCN1CCc2ccccc2CC1)c1ccc2c(c1)OCCO2`, the pIC50 was 6.00.
